# In US10308659B2, “Pyridine derivatives” (Hoffmann-La Roche Inc., priority 2013, dated 2019):
# Columns and labels:
# [1] = biological target: human CB2 receptors (Homo sapiens (Human), UniProt P34972); assay: cAMP assay, CHO cells expressing human CB2 receptors; format: cell-based; details: functional cAMP assay, CHO cells expressing human CB2; read-out: EC50 CB2 human
# Experimental: (§1) CHO cells expressing human CB1 or CB2 receptors are seeded 17-24 hours prior to the experiment 50.000 cells per well in a black 96 well plate with flat clear bottom (Corning Costar #3904) in DMEM (Invitrogen No. 31331), 1×HT supplement, with 10% fetal calf serum and incubated at 5% CO2 and 37° C. in a humidified incubator. The growth medium was exchanged with Krebs Ringer Bicarbonate buffer with 1 mM IBMX and incubated at 30° C. for 30 min. Compounds were added to a final assay volume of 100 μl and incubated for 30 min at 30° C. […] The time-resolved energy transfer is measured by a TRF reader (Evotec Technologies GmbH), equipped with a ND:YAG laser as excitation source. The plate is measured twice with the excitation at 355 nm and at the emission with a delay of 100 ns and a gate of 100 ns, total exposure time 10 s at 730 (bandwidth30 nm) or 645 nm (bandwidth 75 nm), respectively. The FRET signal is calculated as follows: FRET=T730-Alexa730-P(T645-B645) with P=Ru730-B730/Ru645-B645, where T730 is the test well measured at 730 nM, T645 is the test well measured at 645 nm, B730 and B645 are the buffer controls at 730 nm and 645 nm, respectively. cAMP content is determined from the function of a standard curve spanning from 10 μM to 0.13 nM cAMP.
# (§2) EC50 values were determined using Activity Base analysis (ID Business Solution, Limited).
# [2] = biological target: human CB1 receptors (Homo sapiens (Human), UniProt P21554); assay: cAMP assay, CHO cells expressing human CB1 receptors; format: cell-based; details: functional cAMP assay, CHO cells expressing human CB1; read-out: EC50 CB1 human
# Experimental: as §1, §2
# human CB2 receptors, sequence (P34972 whole entry): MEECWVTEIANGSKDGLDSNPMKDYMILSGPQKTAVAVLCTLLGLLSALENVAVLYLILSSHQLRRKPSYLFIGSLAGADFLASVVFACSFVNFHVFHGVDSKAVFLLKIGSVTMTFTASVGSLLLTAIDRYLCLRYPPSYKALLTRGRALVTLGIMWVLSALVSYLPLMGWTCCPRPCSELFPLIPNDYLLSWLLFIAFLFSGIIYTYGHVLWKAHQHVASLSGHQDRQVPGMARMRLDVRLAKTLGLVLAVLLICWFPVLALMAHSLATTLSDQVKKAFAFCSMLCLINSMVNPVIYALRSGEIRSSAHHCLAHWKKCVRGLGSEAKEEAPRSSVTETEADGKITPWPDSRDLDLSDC
# human CB1 receptors, sequence (P21554 whole entry): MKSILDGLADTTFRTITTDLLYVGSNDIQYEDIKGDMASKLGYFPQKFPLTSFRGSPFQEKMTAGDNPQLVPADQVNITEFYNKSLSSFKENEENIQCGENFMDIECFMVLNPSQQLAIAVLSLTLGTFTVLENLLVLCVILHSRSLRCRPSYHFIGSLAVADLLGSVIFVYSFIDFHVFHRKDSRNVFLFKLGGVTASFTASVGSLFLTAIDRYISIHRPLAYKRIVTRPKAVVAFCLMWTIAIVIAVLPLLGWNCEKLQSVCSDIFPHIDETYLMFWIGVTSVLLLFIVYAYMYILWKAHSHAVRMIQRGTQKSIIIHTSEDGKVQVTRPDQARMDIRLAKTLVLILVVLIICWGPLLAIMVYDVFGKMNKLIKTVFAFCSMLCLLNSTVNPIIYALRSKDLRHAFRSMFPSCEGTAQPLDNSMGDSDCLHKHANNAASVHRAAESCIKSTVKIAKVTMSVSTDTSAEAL
Compound,EC50 [1],EC50 [2]
"OC1(c2nc(-c3cc(OCC(F)(F)F)c(N4CC(F)(F)C4)cn3)no2)CC1 [Example 46, 1-[3-[5-(3,3-difluoroazetidin-1-yl)-4-(2,2,2-trifluoroethoxy)pyridin-2-yl]-1,2,4-oxadiazol-5-yl]cyclopropan-1-ol]",180 nM,> 10000 nM
"CC1(c2nc(-c3cc(OCC(F)(F)F)c(N4CC(F)(F)C4)cn3)no2)COC1 [Example 47, 3-[5-(3,3-difluoroazetidin-1-yl)-4-(2,2,2-trifluoroethoxy)pyridin-2-yl]-5-(3-methyloxetan-3-yl)-1,2,4-oxadiazole]",166 nM,> 10000 nM
"C[C@H](Oc1cc(-c2noc(C(C)(C)C)n2)ncc1C1CC1)C(F)(F)F [Example 48, 5-tert-butyl-3-[5-cyclopropyl-4-[(2S)-1,1,1-trifluoropropan-2-yl]oxypyridin-2-yl]-1,2,4-oxadiazole]",19 nM,> 10000 nM
"C[C@@H](Oc1cc(-c2noc(C(C)(C)C)n2)ncc1C1CC1)C(F)(F)F [Example 49, 5-tert-butyl-3-[5-cyclopropyl-4-[(2R)-1,1,1-trifluoropropan-2-yl]oxypyridin-2-yl]-1,2,4-oxadiazole]",51.5 nM,> 10000 nM
"CC1(c2nc(-c3cc(OCC(F)(F)F)c(N4CC(F)(F)C4)cn3)no2)CC1 [Example 50, 3-[5-(3,3-difluoroazetidin-1-yl)-4-(2,2,2-trifluoroethoxy)pyridin-2-yl]-5-(1-methylcyclopropyl)-1,2,4-oxadiazole]",45.8 nM,> 10000 nM
"C[C@@H](Oc1cc(-c2nc(C(C)(C)C)no2)ncc1C1CC1)C(F)(F)F [Example 51, 3-tert-butyl-5-[5-cyclopropyl-4-[(2R)-1,1,1-trifluoropropan-2-yl]oxypyridin-2-yl]-1,2,4-oxadiazole]",61.8 nM,> 10000 nM
"C[C@H](Oc1cc(-c2nc(C(C)(C)C)no2)ncc1C1CC1)C(F)(F)F [Example 52, 3-tert-butyl-5-[5-cyclopropyl-4-[(2S)-1,1,1-trifluoropropan-2-yl]oxypyridin-2-yl]-1,2,4-oxadiazole]",13.1 nM,> 10000 nM
"CC(C)(C)c1nc(-c2cc(OCc3ccc(F)cc3)c(C3CC3)cn2)no1 [Example 53, 5-tert-butyl-3-[5-cyclopropyl-4-[(4-fluorophenyl)methoxy]pyridin-2-yl]-1,2,4-oxadiazole]",1.4 nM,55.1 nM
"CC(C)(C)c1nc(-c2cc(OC3COC3)c(C3CC3)cn2)no1 [Example 54, 5-tert-butyl-3-[5-cyclopropyl-4-(oxetan-3-yloxy)pyridin-2-yl]-1,2,4-oxadiazole]",33.1 nM,> 10000 nM
"CC1(COc2cc(-c3noc(C(C)(C)C)n3)ncc2C2CC2)COC1 [Example 55, 5-tert-butyl-3-[5-cyclopropyl-4-[(3-methyloxetan-3-yl)methoxy]pyridin-2-yl]-1,2,4-oxadiazole]",7.7 nM,> 10000 nM
"CC(C)(C)c1nc(-c2cc(OCC3CCCO3)c(C3CC3)cn2)no1 (stereo not shown) [Example 56, 5-tert-butyl-3-[5-cyclopropyl-4-(oxolan-2-ylmethoxy)pyridin-2-yl]-1,2,4-oxadiazole]",44.7 nM,> 10000 nM
"CN1CCC[C@H]1COc1cc(-c2noc(C(C)(C)C)n2)ncc1C1CC1 [Example 57, 5-tert-butyl-3-[5-cyclopropyl-4-[[(2S)-1-methylpyrrolidin-2-yl]methoxy]pyridin-2-yl]-1,2,4-oxadiazole]",13.4 nM,> 10000 nM
"CC(C)(C)c1nc(-c2cc(OCC3CCO3)c(C3CC3)cn2)no1 (stereo not shown) [Example 58, 5-tert-butyl-3-[5-cyclopropyl-4-(oxetan-2-ylmethoxy)pyridin-2-yl]-1,2,4-oxadiazole]",15.6 nM,> 10000 nM
"CN1CCC(Oc2cc(-c3noc(C(C)(C)C)n3)ncc2C2CC2)C1 (stereo not shown) [Example 59, 5-tert-butyl-3-[5-cyclopropyl-4-(1-methylpyrrolidin-3-yl)oxypyridin-2-yl]-1,2,4-oxadiazole]",48.1 nM,> 10000 nM
"NC1(c2nc(-c3cc(OCC4CC4)c(C4CC4)cn3)no2)COC1 [Example 60, 3-[3-[5-cyclopropyl-4-(cyclopropylmethoxy)pyridin-2-yl]-1,2,4-oxadiazol-5-yl]oxetan-3-amine]",448 nM,> 10000 nM
"CC(C)(C)c1nc(-c2cc(Oc3ccc(F)cc3)c(C3CC3)cn2)no1 [Example 61, 5-tert-butyl-3-[5-cyclopropyl-4-(4-fluorophenoxy)pyridin-2-yl]-1,2,4-oxadiazole]",6.2 nM,> 10000 nM
"CC(C)(C)c1nc(-c2cc(OC3CCOC3)c(C3CC3)cn2)no1 (stereo not shown) [Example 62, 5-tert-butyl-3-[5-cyclopropyl-4-(oxolan-3-yloxy)pyridin-2-yl]-1,2,4-oxadiazole]",17.8 nM,> 10000 nM
"CC(C)(C)c1nc(-c2cc(OC3CCOCC3)c(C3CC3)cn2)no1 [Example 63, 5-tert-butyl-3-[5-cyclopropyl-4-(oxan-4-yloxy)pyridin-2-yl]-1,2,4-oxadiazole]",4.3 nM,> 10000 nM
"CC(C)(C)c1c[nH]c(-c2cc(OCC(F)(F)F)c(N3CC(F)(F)C3)cn2)n1 [Example 64, 2-(5-tert-butyl-1H-imidazol-2-yl)-5-(3,3-difluoroazetidin-1-yl)-4-(2,2,2-trifluoroethoxy)pyridine]",87.5 nM,> 10000 nM
"CC(C)(C)c1cnc(-c2cc(OCC3CC3)c(C3CC3)cn2)o1 [Example 65, 5-tert-butyl-2-[5-cyclopropyl-4-(cyclopropylmethoxy)pyridin-2-yl]-1,3-oxazole]",1.7 nM,170 nM
"CC(C)C1(C)N=C(c2cc(OCC(F)(F)F)c(C3CC3)cn2)NC1=O (stereo not shown) [Example 66, 2-[5-cyclopropyl-4-(2,2,2-trifluoroethoxy)pyridin-2-yl]-4-methyl-4-propan-2-yl-1H-imidazol-5-one]",9 nM,> 10000 nM
"CC(C)(C)c1nc(-c2cc(OCC(F)(F)F)c(S(C)(=O)=O)cn2)no1 [Example 67, 5-tert-butyl-3-[5-methylsulfonyl-4-(2,2,2-trifluoroethoxy)pyridin-2-yl]-1,2,4-oxadiazole]",434 nM,> 10000 nM
"CCC1(C)N=C(c2cc(OCC(F)(F)F)c(C3CC3)cn2)NC1=O (stereo not shown) [Example 68, 2-[5-cyclopropyl-4-(2,2,2-trifluoroethoxy)pyridin-2-yl]-4-ethyl-4-methyl-1H-imidazol-5-one]",72.6 nM,> 10000 nM
"CC(C)CC1(C)N=C(c2cc(OCC(F)(F)F)c(C3CC3)cn2)NC1=O (stereo not shown) [Example 69, 2-[5-cyclopropyl-4-(2,2,2-trifluoroethoxy)pyridin-2-yl]-4-methyl-4-(2-methylpropyl)-1H-imidazol-5-one]",9 nM,> 10000 nM
"CC(C)(C)c1nc(-c2cc(OCC(F)(F)F)c(Cl)cn2)no1 [Example 70, 5-tert-butyl-3-[5-chloro-4-(2,2,2-trifluoroethoxy)pyridin-2-yl]-1,2,4-oxadiazole]",5.7 nM,> 10000 nM
"FC(F)(F)COc1cc(-c2noc(C3CC3)n2)ncc1Cl [Example 71, 3-[5-chloro-4-(2,2,2-trifluoroethoxy)pyridin-2-yl]-5-cyclopropyl-1,2,4-oxadiazole]",280 nM,> 10000 nM
